Experimental data taken from US11993582B2, “Crystalline forms of a LTA4H inhibitor” (Novartis AG, priority 2018, dated 2024).
≈ marks a conversion by molar mass, not a printed value.

Key:
Format in all cases: physicochemical
Hygroscopicity by DVS = assay: Hygroscopicity by DVS
Excerpt: Crystalline form HB is a hydrated form of (S)-3-amino-4-(5-(4-((5-chloro-3-fluoropyridin-2-yl)oxy)phenyl)-2H-tetrazol-2-yl)butanoic acid.

[1] = Solubility in aqueous buffers and bio-relevant media
[2] = Physical stability: granulation simulation experiment (XRPD and/or DSC); details: ethanol or water as granulation solvent, 25° C.
Experimental: Behavior under granulation simulation experiment: The physical stability of crystalline forms HB was also evaluated in granulation simulation experiments. In these experiments granulating solvent was added dropwise to the crystalline form HB until the solid is wetted sufficiently. The mixture was then vortexed between each addition at 25° C. The mixture was then dried under vacuum. The crystallinity of the material (post-grinding) was re-evaluated by XRPD and/or DSC. The granulating solvent was water or ethanol.

[3] = Physical stability: behavior under grinding (XRPD); details: ground manually in a mortar for 3 minutes
Experimental: Behavior under grinding: The physical stability of crystalline form Form HB was also evaluated. 50 mg of the crystalline form B or HB were ground manually in a mortar for 3 minutes.

[4] = Stability in solvent: equilibration of Form HB with solvent, residue analysed by XRPD
[5] = Solid state stability in bulk (HPLC degradation products, XRPD); details: test conditions 1-5: 1 week, tight or open container, room temperature to 80° C., up to 92% RH; listed as Modification HB
Experimental: The chemical and physical stability of form B and form HB was investigated, exposing the individual forms to high humidity at temperatures ranging from 25-80° C.
The degradation products were analyzed by HPLC and the sample was analyzed by XPRD to detect any changes to the solid state.

[6] = Physical stability: behavior under compression (XRPD); details: 5 minutes at 10 tons, hydraulic press, 13 mm tablets
Experimental: Behavior under compression: The physical stability of crystalline Form HB was also evaluated. 300 mf of the crystalline form HB was compressed for 5 minutes at 10 tons with a hydraulic press (diameter of the tablets 13 mm). The sample was then characterized by XRPD to detect any change in the solid state.

[7] = Stability in solvent: equilibration of Form HB with solvent, residue analysed by XRPD; remark: listed apart in the source
Experimental: Equilibrations with solvent were carried out to investigate the relative stability of form HB in solvent. 50 mg of Form HB is equilibrated with 1 mL solvent for 24 h (or 7 days, or 28 days) in a water bath at 25° C. or for 7 days at 50° C. The solutions are filtered and dried for 10 minutes in air. The resulting solid is analyzed by XRPD.
Various solvent were investigated: acetone, acetonitrile, dichloromethane, dioxane, ethanol, heptane, methanol, THF, acetone/water mixtures from 10/90 to 90/10, acetonitrile/water mixtures from 10/90 to 90/10, dioxane/water mixtures from 10/90 to 90/10 and ethanol/water mixture from 10/90 to 90/10, tetrahydrofuran/water (50/50) and 1-propanol/water (70/30).

With `N[C@@H](CC(=O)O)Cn1nnc(-c2ccc(Oc3ncc(Cl)cc3F)cc2)n1` [Form HB, (S)-3-amino-4-(5-(4-((5-chloro-3-fluoropyridin-2-yl)oxy)phenyl)-2H-tetrazol-2-yl)butanoic acid] the Rehydration (Hygroscopicity by DVS; at 10% RH and above 60% RH) was “Stepwise rehydration to HB”, the “Behaviour at low humidity” value (Hygroscopicity by DVS; below 10% RH) was “loses their water” and the Hygroscopicity (Hygroscopicity by DVS; between 10-90% RH) was “not hygroscopic”. The solubility ([1]; FaSSIF (pH=6.5)) was 90 µg/mL (≈ 229 µM), the solubility ([1]; FeSSIF (pH=5.8)) was 9 µg/mL (≈ 22.9 µM) and the solubility ([1]; simulated gastric fluid (SGF of pH=2)) was 750 µg/mL (≈ 1910 µM). For the same molecule, the “Form change by XRPD upon granulation” value [2] was “no form change”, the “Change by XRPD under grinding” value [3] was “did not result in any change” and the “Form conversion through slurry” value ([4]; high temperature slurry at 80° C. in aqueous solvent mixtures) was “Modification B can be obtained”. The “Form conversion through slurry” value ([4]; hot or boiling methanol, about 50° C. to about 65° C.) was “transforms into anhydrous Modification B”, the “Chemical and physical stability in bulk” value [5] was “stable in all conditions except at 80 °C without humidity” and the “Change of crystalline form by XRPD under compression” value [6] was “No change of crystalline form”. The “Solid form after equilibration with solvent” value (“Solid form after equilibration” for short) ([7]; 25° C., 7 days or 28 days, a variety of solvent) was “no change”, the “Solid form after equilibration” value ([7]; 25° C., 7 days or 28 days, acetone, dioxane, ethanol, methanol and THF) was “converts to amorphous material or gel like material” and the Solid state residue ([7]; 50° C., 7 days, 1,4-Dioxane) was “Amorphous”. For the same molecule, the Solid state residue ([7]; 50° C., 7 days, 1-Butanol) was “Amorphous”, the Solid state residue ([7]; 50° C., 7 days, Acetone) was “Amorphous” and the Solid state residue ([7]; 50° C., 7 days, Acetone/water 50/50) was “Form HB”. The Solid state residue ([7]; 50° C., 7 days, Acetone/water 90/10) was “Form HB”, the Solid state residue ([7]; 50° C., 7 days, Acetonitrile) was “Amorphous” and the Solid state residue ([7]; 50° C., 7 days, Anisole) was “Amorphous”. For the same molecule, the Solid state residue ([7]; 50° C., 7 days, DMSO) was “Amorphous”, the Solid state residue ([7]; 50° C., 7 days, DMSO/methanol 50/50) was “Amorphous” and the Solid state residue ([7]; 50° C., 7 days, DMSO/water 50/50) was “Form HB”. The Solid state residue ([7]; 50° C., 7 days, DMSO/water 90/10) was “Amorphous”, the Solid state residue ([7]; 50° C., 7 days, Dichloromethane) was “Amorphous” and the Solid state residue ([7]; 50° C., 7 days, Ethanol) was “Amorphous”. For the same molecule, the Solid state residue ([7]; 50° C., 7 days, Ethyl acetate) was “Amorphous”, the Solid state residue ([7]; 50° C., 7 days, Isopropanol) was “Amorphous” and the Solid state residue ([7]; 50° C., 7 days, Isopropyl acetate) was “Amorphous”. The Solid state residue ([7]; 50° C., 7 days, MEK) was “Amorphous”, the Solid state residue ([7]; 50° C., 7 days, MIBK) was “Amorphous” and the Solid state residue ([7]; 50° C., 7 days, MTBE) was “Amorphous”. For the same molecule, the Solid state residue ([7]; 50° C., 7 days, Methanol) was “transformed into Form B”, the Solid state residue ([7]; 50° C., 7 days, NMP) was “Amorphous” and the Solid state residue ([7]; 50° C., 7 days, THF) was “Amorphous”. The Solid state residue ([7]; 50° C., 7 days, THF/acetone 50/50) was “Amorphous”, the Solid state residue ([7]; 50° C., 7 days, THF/methanol 50/50) was “Amorphous” and the Solid state residue ([7]; 50° C., 7 days, THF/water 50/50) was “Form HB”. For the same molecule, the Solid state residue ([7]; 50° C., 7 days, Toluene) was “Amorphous”, the Solid state residue ([7]; 50° C., 7 days, Water) was “Form HB” and the “Solid form after equilibration” value ([7]; 50° C., 7 days, many solvents) was “became amorphous”. The Solid state residue ([7]; 50° C., 7 days, n-Heptane) was “mixture HB + B”.
